Laboratory results reported in ChEMBL document CHEMBL1127276, “Chemical and plasma hydrolyses of a diphenyl -aminomethyl phosphonate prodrug inhibitor of neutral endopeptidase 24.11” (Bioorg Med Chem Lett, 1994).

What was measured:
[1] = Half life at a pH 8.44 in NaHCO3 medium; format: ADME
[2] = In vitro half life at 1.5 -5.6ug/mL, 37 degree C in monkey plasma; format: ADME, cell-free; conditions: cercopithecidae
[3] = Half life at a pH 12.01 in […] medium; format: ADME
[4] = In vitro half life at 1.5 -5.6ug/mL, 37 degree C in rat plasma; format: ADME
[5] = Half life at a pH 13.65 in KOH medium; format: ADME
[6] = In vitro half life at 1.5 -5.6ug/mL, 37 degree C in dog plasma; format: ADME, Canis lupus familiaris
[7] = In vitro half life at 1.5 -5.6ug/mL, 37 degree C in human plasma; format: ADME, cell-free
[8] = Half life at a pH 8.5 in Na2HPO4/NaH2PO4 medium; format: ADME
[9] = Half life at a pH 8.78 in KHCO3 medium; format: ADME
[10] = Ionization constant in basic (NH2+) medium; format: physicochemical; conditions: read-out: pKa4
[11] = Ionization constant in slightly acidic(POH) medium; format: physicochemical; conditions: read-out: pKa3
[12] = Ionization constant in acidic (COOH)medium; format: physicochemical; conditions: read-out: pKa2

pKa [11]	Compound	half-life [1] [h]	half-life [2] [h]	half-life [3] [h]	half-life [4] [h]	half-life [5] [min]	half-life [6] [h]	half-life [7] [h]	half-life [8] [h]	half-life [9] [h]	pKa [10]	pKa [12]
–	O=C(O)CCNC(=O)[C@H](Cc1ccc(-c2ccccc2)cc1)NCP(=O)(Oc1ccccc1)Oc1ccccc1	8.68	4.7	< 0.167	2.5	< 5	13	1.4	> 96	8.19	–	–
7.8	O=C(O)CCNC(=O)[C@H](Cc1ccc(-c2ccccc2)cc1)NCP(=O)(O)O	–	–	–	–	–	–	–	–	–	10	5.5
–	O=C(O)CCNC(=O)[C@H](Cc1ccc(-c2ccccc2)cc1)NCP(=O)(O)Oc1ccccc1	0.55	> 7.8	> 0.1	9.4	> 6	38	4.2	> 6	0.51	10	5.8
